In assay [1] the test system is meK172meK180 methylated form of H1.0 in hADSC cells. Nature of the assay: H1.0 meK172meK180 methylation and localisation in hADSCs upon bleomycin genotoxic stress (immunostaining, Western blot). To be noted: for nuclear meK172meK180 H1 methylation (initial DNA damage response): hADSC, bleomycin 50 μg/ml. It is filed as cell-based, human. On the procedure: FIGS. 4A-4C illustrate the dynamics of the meK172meK180 methylation of hi stone H1.0 upon genotoxic stress-induced senescence of human adult stem (hADSC). FIG. 4A: Cells we treated with 50 μg/ml bleomycin for 3 hrs. Drug was replaced with normal DMEM12 media and cells were assessed for ^meK172^meK180 histone H1 methylation and DNA damage γH2AX at different time points (panels A, B, and C) by immunohistochemistry. Cellular senescence was estimated by senescence-associated β-Gal activity (phase-contrast). […] 1, 2, 3—represent samples of three independent hADSCs cultures used in western blot and qPCR experiments.
Cellular senescence is believed to be associated with accumulation of persistent DNA damage and activation of DNA damage response (DDR) pathways. In the DDR pathway, some chromatin modifications seem to play a critical role in marking lesions or recruiting factors involved in repair, thus facilitating the function of repair proteins. The best characterized in this context are histone H2AX and H1 phosphorylation events.

In assay [2] the test system is H1.0 gene. Description: H1.0 gene expression in hADSCs (qPCR). To be noted: bleomycin-treated hADSCs. It is filed as cell-based, human. On the procedure: FIGS. 4A-4C illustrate the dynamics of the meK172meK180 methylation of hi stone H1.0 upon genotoxic stress-induced senescence of human adult stem (hADSC). FIG. 4A: Cells we treated with 50 μg/ml bleomycin for 3 hrs. Drug was replaced with normal DMEM12 media and cells were assessed for ^meK172^meK180 histone H1 methylation and DNA damage γH2AX at different time points (panels A, B, and C) by immunohistochemistry. Cellular senescence was estimated by senescence-associated β-Gal activity (phase-contrast). FIGS. 4B and 4C show the results of Western blots using H1.0 methyl antibodies in crude cellular extracts from human ADSCs treated with Rapamycin (FIG. 4B) or rampamyucin and bleomycin (FIG. 4C). […] However, acute DDR results in transcriptional up regulation of H1.0 gene expression that could be influenced by TOR pathway suppression. 1, 2, 3—represent samples of three independent hADSCs cultures used in western blot and qPCR experiments.
Cellular senescence is believed to be associated with accumulation of persistent DNA damage (Sedelnikova et al. (2008) Aging Cell 7: 89-100; Rodier et al. (2009) Nat. Cell Biol., 11: 973-979) and activation of DNA damage response (DDR) pathways (Wang et al. (2011) Cell Cycle 10: 3016-3030; Sedelnikova et al. (2004) Nat. Cell Biol., 6: 168-170; Herbig et al. (2004) Molecular Cell, 14: 501-513; d'Adda et al. (2003) Nature 426: 194-198). […]

The values that follow come from US8981066B2, “Epigenetic mechanisms related to DNA damage and aging” (Buck Institute for Research on Aging, priority 2011, dated 2015).

For bleomycin, in assay [1] (bleomycin-treated hADSCs), the “localisation of met H1.0 upon genotoxic-stress induced senescence” value is on record as “eviction of met H1.0 into the cytoplasm”. Moreover, the “nuclear meK172meK180 H1 methylation (initial DNA damage response)” value in assay [1] is “triggers”; in assay [1] (listed as bleomycine), “rapid and robust nuclear H1.0 methylation”. The “H1.0 transcription upon acute DNA damage” value in assay [2] was “drastic increase”.
